Measured values from patent US9790229B2, “Bruton's tyrosine kinase inhibitors” (priority 2009, dated 2017).
pIC50: −log10 of the molar value. Read-outs that look alike come from different tables or passages of the source.

Biological target: BTK (Homo sapiens (Human), UniProt Q06187)
Assay: In vitro BTK kinase assay: BTK-POLYGAT-LS ASSAY
[1] = read-out: IC50 (10 uM ATP), 10 uM ATP, in vitro Btk kinase assay, Example 41

Chain of BTK (Q06187 whole entry): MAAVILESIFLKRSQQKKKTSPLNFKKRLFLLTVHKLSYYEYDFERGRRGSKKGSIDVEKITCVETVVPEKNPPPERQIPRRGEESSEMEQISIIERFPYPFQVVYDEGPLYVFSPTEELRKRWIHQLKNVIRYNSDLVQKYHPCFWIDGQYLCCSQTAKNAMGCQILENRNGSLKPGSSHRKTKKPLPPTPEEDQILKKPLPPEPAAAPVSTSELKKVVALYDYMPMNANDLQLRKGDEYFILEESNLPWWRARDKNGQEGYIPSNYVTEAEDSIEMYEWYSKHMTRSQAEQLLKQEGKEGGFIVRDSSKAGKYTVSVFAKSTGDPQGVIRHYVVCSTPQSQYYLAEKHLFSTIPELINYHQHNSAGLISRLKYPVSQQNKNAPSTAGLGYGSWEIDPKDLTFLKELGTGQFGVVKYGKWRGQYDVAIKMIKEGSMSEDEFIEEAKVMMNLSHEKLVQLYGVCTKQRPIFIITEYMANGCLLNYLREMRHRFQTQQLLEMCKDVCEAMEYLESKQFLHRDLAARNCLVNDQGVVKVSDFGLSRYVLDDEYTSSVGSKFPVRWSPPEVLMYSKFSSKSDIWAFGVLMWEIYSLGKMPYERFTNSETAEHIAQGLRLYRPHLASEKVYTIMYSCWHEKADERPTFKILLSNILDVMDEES

Structure (SMILES)	pIC50 [1]	pIC50
S=C(Nc1ccccc1)Nc1cccc(C2CCCN(c3ncnc4[nH]ccc34)C2)c1 (centres unmarked) [Cmpd 67, 1-(3-(1-(7H-pyrrolo[2,3-d]pyrimidin-4-yl)piperidin-3-yl)phenyl)-3-phenylthiourea]	< 5.00	–
CCc1cccc(CC)c1NC(=O)Nc1cccc(C2CCCN(c3ncnc4[nH]ccc34)C2)c1 (centres unmarked) [Cmpd 33, 1-(3-(1-(7H-pyrrolo[2,3-d]pyrimidin-4-yl)piperidin-3-yl)phenyl)-3-(2,6-diethylphenyl)urea]	–	6.00 to 7.00
O=C(Nc1cc(C2CCCN(c3ncnc4[nH]ccc34)C2)ccc1OC(F)(F)F)C1CCCCC1 (centres unmarked) [Cmpd 87, N-(5-(1-(7H-pyrrolo[2,3-d]pyrimidin-4-yl)piperidin-3-yl)-2-(trifluoromethoxy)phenyl)cyclohexanecarboxamide]	–	6.00 to 7.00
O=C(Nc1cccc(C2CCCN(c3ncnc4[nH]ccc34)C2)c1)c1ccccc1Cl (centres unmarked) [Cmpd 5, N-(3-(1-(7H-pyrrolo[2,3-d]pyrimidin-4-yl)piperidin-3-yl)phenyl)-2-chlorobenzamide]	< 5.00	–
O=C(Nc1ccccc1)Nc1cc(C2CCCN(c3ncnc4[nH]ccc34)C2)ccc1OC(F)(F)F (centres unmarked) [compound 267]	< 5.00	–
O=C(Nc1cccc(C2CCCN(c3ncnc4[nH]ccc34)C2)c1)Nc1cnccc1N1CCCC1 (centres unmarked) [compound 224]	< 5.00	–
CC(C)CCNC(=O)Nc1cccc(C2CCCN(c3ncnc4[nH]ccc34)C2)c1 (centres unmarked) [compound 186]	–	5.00 to 6.00
Nc1ncnc(N2CCC[C@@H](N3CC(O)C(O)C[C@@H](Nc4cc(F)cc(Cl)c4)C3=O)C2)c1F (stereo partly drawn) [compound 348, (3R)-1-((R)-1-(6-amino-5-fluoropyrimidin-4-yl)piperidin-3-yl)-3-(3-chloro-5-fluorophenylamino)-5,6-dihydroxyazepan-2-one]	> 7.00	–
O=C(NCC1CCCCCC1)Nc1cccc(C2CCCN(c3ncnc4[nH]ccc34)C2)c1 (centres unmarked) [compound 217]	–	5.00 to 6.00
CN(C)[C@@H]1CCN(c2ccccc2NC(=O)Nc2cccc(C3CCCN(c4ncnc5[nH]ccc45)C3)c2)C1 (some centres unmarked) [compound 210]	–	5.00 to 6.00
O=C(Nc1ccccc1)Nc1csc(C2CCCN(c3ncnc4[nH]ccc34)C2)n1 (centres unmarked) [compound 106, 1-(2-(1-(7H-pyrrolo[2,3-d]pyrimidin-4-yl)piperidin-3-yl)thiazol-4-yl)-3-phenylurea]	–	5.00 to 6.00
O=C(Nc1ccsc1)Nc1cccc(C2CCCN(c3ncnc4[nH]ccc34)C2)c1 (centres unmarked) [Cmpd 32, 1-(3-(1-(7H-pyrrolo[2,3-d]pyrimidin-4-yl)piperidin-3-yl)phenyl)-3-(thiophen-3-yl)urea]	–	5.00 to 6.00
Cc1ccc(NC(=O)Nc2ccccc2)cc1C1CCCN(c2ncnc3[nH]ccc23)C1 (centres unmarked) [Cmpd 79, 1-(3-(1-(7H-pyrrolo[2,3-d]pyrimidin-4-yl)piperidin-3-yl)-4-methylphenyl)-3-phenylurea]	< 5.00	–
CC(C)(C)c1ccccc1NC(=O)Nc1cccc(C2CCCN(c3ncnc4[nH]ccc34)C2)c1 (centres unmarked) [compound 167]	–	6.00 to 7.00
O=c1c(Nc2ccc(Cl)cc2)c(Nc2cccc(C3CCCN(c4ncnc5[nH]ccc45)C3)c2)c1=O (centres unmarked) [Cmpd 70, 3-(3-(1-(7H-pyrrolo[2,3-d]pyrimidin-4-yl)piperidin-3-yl)phenylamino)-4-(4-chlorophenylamino)cyclobut-3-ene-1,2-dione]	< 5.00	–
O=C(Nc1cccc(C2CCCN(c3ncnc4[nH]ccc34)C2)c1)Nc1ccccc1N1CC[C@@H](F)C1 (some centres unmarked) [compound 162]	–	6.00 to 7.00
O=C(Nc1cc(C2CCCN(c3ncnc4[nH]ccc34)C2)ccc1OC(F)(F)F)c1c(Cl)cccc1Cl (centres unmarked) [Cmpd 88, N-(5-(1-(7H-pyrrolo[2,3-d]pyrimidin-4-yl)piperidin-3-yl)-2-(trifluoromethoxy)phenyl)-2,6-dichlorobenzamide]	–	5.00 to 6.00
Nc1ncnc(N2CC[C@@H](C(F)(F)F)[C@H](N3CC=CC[C@@H](Nc4cc(F)cc(Cl)c4)C3=O)C2)c1F [compound 350]	> 7.00	–
O=C(Nc1cccc(C2CCCN(c3ncnc4[nH]ccc34)C2)c1)NC1CCNC1 (centres unmarked) [compound 239]	< 5.00	–
Nc1ncnc(N2CC[C@H](C(F)(F)F)[C@@H](N3CCC[C@@H](Nc4cc(Cl)cc(Cl)c4)C3=O)C2)c1F [compound 337, trans (3R)-1′-(6-Amino-5-fluoropyrimidin-4-yl)-3-(3,5-dichlorophenylamino)-4′-(trifluoromethyl)-1,3′-bipiperidin-2-one]	> 7.00	–
O=C(Nc1cccc(C2CCCN(c3ncnc4[nH]ccc34)C2)c1)Nc1c(F)cccc1C(F)(F)F (centres unmarked) [compound 194]	–	5.00 to 6.00
Nc1ncnc(N2CC[C@@H](C(F)(F)F)[C@H](N3CCC[C@@H](Nc4cc(Cl)cc(Cl)c4)C3=O)C2)c1F [compound 335, trans (3R)-1′-(6-Amino-5-fluoropyrimidin-4-yl)-3-(3,5-dichlorophenylamino)-4′-(trifluoromethyl)-1,3′-bipiperidin-2-one]	> 7.00	–
O=C(Nc1cccc(C2CCCN(c3ncnc4[nH]ccc34)C2)c1)c1ccncc1 (centres unmarked) [compound 11, N-(3-(1-(7H-pyrrolo[2,3-d]pyrimidin-4-yl)piperidin-3-yl)phenyl)isonicotinamide]	< 5.00	–
O=C(Nc1ccccc1)Nc1cccc(C2CCCN(c3ncnc4[nH]ncc34)C2)c1 (centres unmarked) [Cmpd 91, 1-(3-(1-(1H-pyrazolo[3,4-d]pyrimidin-4-yl)piperidin-3-yl)phenyl)-3-phenylurea]	–	5.00 to 6.00

Structure (SMILES)	pIC50 [1]	pIC50
Nc1ncnc(N2CCC(C(F)(F)F)C(N3CC=CC[C@@H](Nc4cc(F)cc(Cl)c4)C3=O)C2)c1F (stereo partly drawn) [compound 349, trans (R,Z)-1-(-1-(6-amino-5-fluoropyrimidin-4-yl)-4-(trifluoromethyl)piperidin-3-yl)-3-(3-chloro-5-fluorophenylamino)-3,4-dihydro-1H-azepin-2(7H)-one]	> 7.00	–
O=C(Nc1cccc(C2CCCN(c3ncnc4[nH]ccc34)C2)c1)Nc1ccc(F)cc1N1CCCC1 (centres unmarked) [compound 147]	> 7.00	–
O=C(Nc1cccc(C2CCCN(c3ncnc4[nH]ccc34)C2)c1)[C@H](O)c1ccccc1 (stereo partly drawn) [Cmpd 19, (2R)—N-(3-(1-(7H-pyrrolo[2,3-d]pyrimidin-4-yl)piperidin-3-yl)phenyl)-2-hydroxy-2-phenylacetamide]	–	5.00 to 6.00
CC(=O)N1CCN(c2ncnc3[nH]ccc23)CC1c1cccc(NC(=O)Nc2ccccc2)c1 (centres unmarked) [compound 127, 1-(3-(1-acetyl-4-(7H-pyrrolo[2,3-d]pyrimidin-4-yl)piperazin-2-yl)phenyl)-3-phenylurea]	< 5.00	–
O=C(Nc1ccccc1)N[C@@H]1CCCN(C2CCCN(c3ncnc4[nH]ccc34)C2)C1 (some centres unmarked) [compound 205]	–	5.00 to 6.00
COc1ccc(NC(=O)Nc2cccc(C3CCCN(c4ncnc5[nH]ccc45)C3)c2)cc1 (centres unmarked) [compound 201]	–	5.00 to 6.00
Nc1ncnc(N2CCCC(c3nc(NC(=O)Nc4c(F)cc(F)cc4N4CCCC4)cs3)C2)c1Cl (centres unmarked) [compound 114, 1-(2-(1-(6-amino-5-chloropyrimidin-4-yl)piperidin-3-yl)thiazol-4-yl)-3-(2,4-difluoro-6-(pyrrolidin-1-yl)phenyl)urea]	–	6.00 to 7.00
O=C(Nc1cccc(C2CCCN(c3ncnc4[nH]ccc34)C2)c1)[C@@H](O)c1ccccc1 (stereo partly drawn) [Cmpd 18, (2S)—N-(3-(1-(7H-pyrrolo[2,3-d]pyrimidin-4-yl)piperidin-3-yl)phenyl)-2-hydroxy-2-phenylacetamide]	–	5.00 to 6.00
O=C(Nc1cccc(F)c1)Nc1cccc(C2CCCN(c3ncnc4[nH]ccc34)C2)c1 (centres unmarked) [compound 183]	–	5.00 to 6.00
O=C(NCC1CCNCC1)Nc1cccc(C2CCCN(c3ncnc4[nH]ccc34)C2)c1 (centres unmarked) [compound 231]	< 5.00	–
CN1CCC(CNC(=O)Nc2cccc(C3CCCN(c4ncnc5[nH]ccc45)C3)c2)CC1 (centres unmarked) [compound 245]	< 5.00	–
Nc1ncnc(N2CCC[C@@H](N3CCCC[C@@H](Nc4cc(F)cc(Cl)c4)C3=O)C2)c1F [compound 346, (R)-1-((R)-1-(6-amino-5-fluoropyrimidin-4-yl)piperidin-3-yl)-3-(3-chloro-5-fluorophenylamino)azepan-2-one]	> 7.00	–
Nc1ncnc(N2C[C@@H](F)C[C@@H](N3CCCC(Nc4cc(Cl)cc(Cl)c4)C3=O)C2)c1F (stereo partly drawn) [compound 280, (3′R,5′S)-1′-(6-Amino-5-fluoropyrimidin-4-yl)-3-(3,5-dichlorophenylamino)-5′-fluoro-1,3′-bipiperidin-2-one]	> 7.00	–
Nc1ncnc(N2CC[C@@H](O)[C@H](N3CCC[C@H](Nc4cc(Cl)cc(Cl)c4)C3=O)C2)c1F [compound 328, trans (3S)-1′-(6-Amino-5-fluoropyrimidin-4-yl)-3-(3,5-dichlorophenylamino)-4′-hydroxy-1,3′-bipiperidin-2-one]	–	5.00 to 6.00
O=C(Nc1cccc(C2CCCN(c3ncnc4[nH]ccc34)C2)c1)Nc1cccnc1F (centres unmarked) [compound 197]	–	5.00 to 6.00
Nc1ncnc(N2CCCC(c3cccc(NC(=O)Nc4ccccc4)c3)C2)c1Br (centres unmarked) [Cmpd 101, 1-(3-(1-(6-Amino-5-bromopyrimidin-4-yl)piperidin-3-yl)phenyl)-3-phenylurea]	–	5.00 to 6.00
C[C@H](NC(=O)Nc1cccc(C2CCCN(c3ncnc4[nH]ccc34)C2)c1)C1CCCCC1 (some centres unmarked) [compound 242]	< 5.00	–
O=C(Nc1ccccc1)N[C@H]1CCCN(C2CCCN(c3ncnc4[nH]ccc34)C2)C1 (some centres unmarked) [compound 237]	< 5.00	–
CC(C)(C)NC(=O)Nc1cccc(C2CCCN(c3ncnc4[nH]ccc34)C2)c1 (centres unmarked) [compound 250]	< 5.00	–
CC(C)(C)N/C(=N/C#N)Nc1cccc(C2CCCN(c3ncnc4[nH]ccc34)C2)c1 (centres unmarked) [Cmpd 78, (Z)-1-(3-(1-(7H-pyrrolo[2,3-d]pyrimidin-4-yl)piperidin-3-yl)phenyl)-3-tert-butyl-2-cyanoguanidine]	< 5.00	–
O=C(NCC1CCC(C(F)(F)F)CC1)Nc1cccc(C2CCCN(c3ncnc4[nH]ccc34)C2)c1 (centres unmarked) [compound 257]	< 5.00	–
O=C(Nc1csc(C2CCCN(c3ncnc4[nH]ccc34)C2)n1)Nc1c(F)cc(F)cc1N1CCCC1 (centres unmarked) [compound 111, 1-(2-(1-(7H-pyrrolo[2,3-d]pyrimidin-4-yl)piperidin-3-yl)thiazol-4-yl)-3-(2,4-difluoro-6-(pyrrolidin-1-yl)phenyl)urea]	> 7.00	–
O=C(Nc1cccc(C2CCCN(c3ncnc4[nH]ccc34)C2)c1)Nc1cc(F)ccc1N1CCCC1 (centres unmarked) [compound 160]	–	6.00 to 7.00
